Results taken from ChEMBL document CHEMBL4680155, “One-pot synthesis and molecular docking of some new spiropyranindol-2-one derivatives as immunomodulatory agents and in vitro antimicrobial potential with DNA gyrase inhibitor” (Eur J Med Chem, 2020).
In brackets after ≈: the same amount, converted by molar mass.

Experiments:
Enterococcus faecalis [1] = experiment: Antibacterial activity against Enterococcus faecalis ATCC 29212 assessed as diameter of inhibition zone at 0.5 mg/ml incubated for 24 hrs by agar diffusion method; assay type: functional; details: read-out: DIZ
Staphylococcus aureus [2] = experiment: Antibacterial activity against Staphylococcus aureus ATCC 29213 assessed as diameter of inhibition zone at 0.5 mg/ml incubated for 24 hrs by agar diffusion method; assay type: functional; details: read-out: DIZ
Escherichia coli [3] = experiment: Antibacterial activity against Escherichia coli ATCC 25922 assessed as diameter of inhibition zone at 0.5 mg/ml incubated for 24 hrs by agar diffusion method; assay type: functional; details: read-out: DIZ
Salmonella typhimurium [4] = experiment: Antibacterial activity against Salmonella typhi ATCC 6539 assessed as diameter of inhibition zone at 0.5 mg/ml incubated for 24 hrs by agar diffusion method; assay type: functional, Salmonella enterica subsp. enterica serovar Typhimurium; details: Salmonella enterica, read-out: DIZ
Candida albicans [5] = experiment: Antifungal activity against Candida albicans ATCC 10231 assessed as diameter of inhibition zone at 0.5 mg/ml incubated for 24 hrs by agar diffusion method; assay type: functional; details: read-out: DIZ
Aspergillus brasiliensis [6] = experiment: Antifungal activity against Aspergillus brasiliensis ATCC 16404 assessed as diameter of inhibition zone at 0.5 mg/ml incubated for 72 hrs by agar diffusion method; assay type: functional; details: read-out: DIZ
Enterococcus faecalis [7] = experiment: Antibacterial activity against Enterococcus faecalis ATCC 29212 assessed as reduction in bacterial growth incubated for 1 day by paper disk diffusion method; assay type: functional; details: ATCC 29212, 24 h
Staphylococcus aureus [8] = experiment: Antibacterial activity against Staphylococcus aureus ATCC 29213 assessed as reduction in bacterial growth incubated for 1 day by paper disk diffusion method; assay type: functional; details: ATCC 29213, 24 h
Escherichia coli [9] = experiment: Antibacterial activity against Escherichia coli ATCC 25922 assessed as reduction in bacterial growth incubated for 1 day by paper disk diffusion method; assay type: functional; details: ATCC 25922, 24 h
Salmonella typhimurium [10] = experiment: Antibacterial activity against Salmonella typhi ATCC 6539 assessed as reduction in bacterial growth incubated for 1 day by paper disk diffusion method; assay type: functional, Salmonella enterica subsp. enterica serovar Typhimurium; details: Salmonella enterica, ATCC 6539, 24 h
Candida albicans [11] = experiment: Antifungal activity against Candida albicans ATCC 10231 assessed as reduction in bacterial growth incubated for 1 day by paper disk diffusion method; assay type: functional; details: ATCC 10231, 24 h
Aspergillus brasiliensis [12] = experiment: Antifungal activity against Aspergillus brasiliensis ATCC 16404 assessed as reduction in bacterial growth incubated for 3 days by paper disk diffusion method; assay type: functional; details: ATCC 16404, 72 h, time 3 day
Enterococcus faecalis [13] = experiment: Bactericidal activity against Enterococcus faecalis ATCC 29212 incubated for 24 hrs followed by transferring to freshly prepared broth medium and measured after 24 hrs by broth microdilution assay; assay type: functional; details: time 48 hrs
Staphylococcus aureus [14] = experiment: Bactericidal activity against Staphylococcus aureus ATCC 29213 incubated for 24 hrs followed by transferring to freshly prepared broth medium and measured after 24 hrs by broth microdilution assay; assay type: functional; details: time 48 hrs
Escherichia coli [15] = experiment: Bactericidal activity against Escherichia coli ATCC 25922 incubated for 24 hrs followed by transferring to freshly prepared broth medium and measured after 24 hrs by broth microdilution assay; assay type: functional; details: time 48 hrs
Salmonella typhimurium [16] = experiment: Bactericidal activity against Salmonella typhi ATCC 6539 incubated for 24 hrs followed by transferring to freshly prepared broth medium and measured after 24 hrs by broth microdilution assay; assay type: functional, Salmonella enterica subsp. enterica serovar […]; details: Salmonella enterica, time 48 hrs
Candida albicans [17] = experiment: Fungicidal activity against Candida albicans ATCC 10231 incubated for 24 hrs followed by transferring to freshly prepared broth medium and measured after 24 hrs by broth microdilution assay; assay type: functional; details: time 48 hrs
Aspergillus brasiliensis [18] = experiment: Fungicidal activity against Aspergillus brasiliensis ATCC 16404 incubated for 72 hrs followed by transferring to freshly prepared broth medium and measured after 24 hrs by broth microdilution assay; assay type: functional; details: time 96 hrs
Staphylococcus aureus [19] = experiment: Antibacterial activity against multidrug resistant Staphylococcus aureus ATCC 43300 assessed as diameter of inhibition zone at 0.5 mg/ml incubated for 24 hrs by agar diffusion method; assay type: functional; details: read-out: DIZ
Staphylococcus aureus [20] = experiment: Antibacterial activity against multidrug resistant Staphylococcus aureus ATCC 33591 assessed as diameter of inhibition zone at 0.5 mg/ml incubated for 24 hrs by agar diffusion method; assay type: functional; details: read-out: DIZ
Escherichia coli [21] = experiment: Antibacterial activity against multidrug resistant Escherichia coli ATCC BAA-196 assessed as diameter of inhibition zone at 0.5 mg/ml incubated for 24 hrs by agar diffusion method; assay type: functional; details: read-out: DIZ
Pseudomonas aeruginosa [22] = experiment: Antibacterial activity against multidrug resistant Pseudomonas aeruginosa ATCC BAA-2111 assessed as diameter of inhibition zone at 0.5 mg/ml incubated for 24 hrs by agar diffusion method; assay type: functional; details: read-out: DIZ
Staphylococcus aureus [23] = experiment: Antibacterial activity against multidrug resistant Staphylococcus aureus ATCC 43300 assessed as reduction in bacterial growth incubated for 1 day by paper disk diffusion method; assay type: functional; details: ATCC 43300, 24 h
Staphylococcus aureus [24] = experiment: Antibacterial activity against multidrug resistant Staphylococcus aureus ATCC 33591 assessed as reduction in bacterial growth incubated for 1 day by paper disk diffusion method; assay type: functional; details: ATCC 33591, 24 h
Escherichia coli [25] = experiment: Antibacterial activity against multidrug resistant Escherichia coli ATCC BAA-196 assessed as reduction in bacterial growth incubated for 1 day by paper disk diffusion method; assay type: functional; details: ATCC BAA-196, 24 h
Pseudomonas aeruginosa [26] = experiment: Antibacterial activity against multidrug resistant Pseudomonas aeruginosa ATCC BAA-2111 assessed as reduction in bacterial growth incubated for 1 day by paper disk diffusion method; assay type: functional; details: ATCC BAA-2111, 24 h
Staphylococcus aureus [27] = experiment: Bactericidal activity against Staphylococcus aureus ATCC 43300 incubated for 24 hrs followed by transferring to freshly prepared broth medium and measured after 24 hrs by broth microdilution assay; assay type: functional; details: time 48 hrs
Staphylococcus aureus [28] = experiment: Bactericidal activity against Staphylococcus aureus ATCC 33591 incubated for 24 hrs followed by transferring to freshly prepared broth medium and measured after 24 hrs by broth microdilution assay; assay type: functional; details: time 48 hrs
Escherichia coli [29] = experiment: Bactericidal activity against Escherichia coli ATCC BAA-196 incubated for 24 hrs followed by transferring to freshly prepared broth medium and measured after 24 hrs by broth microdilution assay; assay type: functional; details: time 48 hrs
Pseudomonas aeruginosa [30] = experiment: Bactericidal activity against Pseudomonas aeruginosa ATCC BAA-2111 incubated for 24 hrs followed by transferring to freshly prepared broth medium and measured after 24 hrs by broth microdilution assay; assay type: functional; details: time 48 hrs
Neutrophil = experiment: Immunomodulatory activity in human neutrophils infected with bacteria assessed as increase in bacterial killing by measuring reduced NBT incubated for 30 mins by NBT dye based spectrophotometry; assay type: functional; set-up: concentration or dose not given beside the values; details: 0.5 h
DNA gyrase = DNA gyrase (Staphylococcus aureus, UniProt P0A0K8+P20831); experiment: Inhibition of Staphylococcus aureus DNA gyrase using relaxed pBR322 DNA as substrate incubated for 45 mins by agarose gel electrophoresis method; assay type: protein-complex assay
DNA gyrase, sequence (P0A0K8 whole entry): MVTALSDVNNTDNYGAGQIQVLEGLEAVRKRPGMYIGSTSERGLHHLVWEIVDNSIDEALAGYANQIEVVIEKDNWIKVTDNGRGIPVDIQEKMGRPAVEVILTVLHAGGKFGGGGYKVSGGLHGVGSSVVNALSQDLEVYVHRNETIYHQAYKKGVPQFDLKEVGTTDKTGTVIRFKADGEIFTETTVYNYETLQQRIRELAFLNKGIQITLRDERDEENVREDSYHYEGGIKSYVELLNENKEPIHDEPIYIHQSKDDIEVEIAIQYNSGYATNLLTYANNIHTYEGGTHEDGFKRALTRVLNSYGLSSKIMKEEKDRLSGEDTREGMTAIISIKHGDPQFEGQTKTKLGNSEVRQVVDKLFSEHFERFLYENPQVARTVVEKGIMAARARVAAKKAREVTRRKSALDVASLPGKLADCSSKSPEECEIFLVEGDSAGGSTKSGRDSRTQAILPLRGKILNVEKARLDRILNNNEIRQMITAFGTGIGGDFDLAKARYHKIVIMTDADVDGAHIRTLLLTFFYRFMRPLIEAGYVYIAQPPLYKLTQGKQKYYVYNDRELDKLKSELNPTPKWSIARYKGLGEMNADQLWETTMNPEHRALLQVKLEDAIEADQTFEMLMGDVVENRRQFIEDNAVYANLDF
DNA gyrase, sequence (P20831 whole entry): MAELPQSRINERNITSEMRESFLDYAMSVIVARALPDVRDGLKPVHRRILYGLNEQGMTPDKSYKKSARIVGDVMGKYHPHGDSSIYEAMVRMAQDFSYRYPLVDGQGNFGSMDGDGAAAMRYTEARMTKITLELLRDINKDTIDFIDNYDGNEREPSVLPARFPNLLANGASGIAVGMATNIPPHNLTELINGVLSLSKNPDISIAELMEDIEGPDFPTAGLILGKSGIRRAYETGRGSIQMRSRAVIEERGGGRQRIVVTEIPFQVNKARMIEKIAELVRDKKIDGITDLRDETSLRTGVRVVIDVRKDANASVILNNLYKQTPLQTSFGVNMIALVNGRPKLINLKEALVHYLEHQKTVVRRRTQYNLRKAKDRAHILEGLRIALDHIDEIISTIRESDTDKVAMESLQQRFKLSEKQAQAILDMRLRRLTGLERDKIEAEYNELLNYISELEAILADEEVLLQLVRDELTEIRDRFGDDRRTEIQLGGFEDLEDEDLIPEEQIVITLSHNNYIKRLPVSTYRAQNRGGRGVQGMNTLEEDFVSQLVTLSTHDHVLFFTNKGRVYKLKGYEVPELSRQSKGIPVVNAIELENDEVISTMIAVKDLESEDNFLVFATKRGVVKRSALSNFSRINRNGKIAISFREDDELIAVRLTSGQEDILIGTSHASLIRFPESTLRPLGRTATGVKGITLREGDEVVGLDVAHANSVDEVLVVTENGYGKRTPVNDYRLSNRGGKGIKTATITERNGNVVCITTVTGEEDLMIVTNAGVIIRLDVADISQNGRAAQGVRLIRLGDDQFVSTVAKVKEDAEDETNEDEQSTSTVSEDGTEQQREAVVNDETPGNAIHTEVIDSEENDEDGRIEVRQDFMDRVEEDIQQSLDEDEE

Row | SMILES | zone of inhibition at 500 µg/mL (Enterococcus faecalis [1]) | zone of inhibition at 500 µg/mL (Staphylococcus aureus [2]) | zone of inhibition at 500 µg/mL (Escherichia coli [3]) | zone of inhibition at 500 µg/mL (Salmonella typhimurium [4]) | zone of inhibition at 500 µg/mL (Candida albicans [5]) | zone of inhibition at 500 µg/mL (Aspergillus brasiliensis [6]) | MIC (Enterococcus faecalis [7]) | MIC (Staphylococcus aureus [8]) | MIC (Escherichia coli [9]) | MIC (Salmonella typhimurium [10]) | MIC (Candida albicans [11]) | MIC (Aspergillus brasiliensis [12]) | MBC (Enterococcus faecalis [13]) | MBC (Staphylococcus aureus [14]) | MBC (Escherichia coli [15]) | MBC (Salmonella typhimurium [16]) | MFC (Candida albicans [17]) | MFC (Aspergillus brasiliensis [18]) | zone of inhibition at 500 µg/mL (Staphylococcus aureus [19]) | zone of inhibition at 500 µg/mL (Staphylococcus aureus [20]) | other results
1 | CCOC(=O)C1=C(N)OC(C)=C(C(C)=O)C12C(=O)Nc1ccc(S(=O)(=O)N3CCOCC3)cc12 (centres undefined) | 19 mm | 23 mm | 21 mm | 20 mm | 20 mm | 16 mm | 12.5 µg/mL (≈ 25.4 µM) | 62.5 µg/mL (≈ 127 µM) | 15.6 µg/mL (≈ 31.8 µM) | 31.2 µg/mL (≈ 63.6 µM) | 8.88 µg/mL (≈ 18.1 µM) | 88.3 µg/mL (≈ 180 µM) | 17.6 µg/mL (≈ 35.7 µM) | 100 µg/mL (≈ 203 µM) | 20.3 µg/mL (≈ 41.3 µM) | 53.1 µg/mL (≈ 108 µM) | 15.6 µg/mL (≈ 31.8 µM) | 177 µg/mL (≈ 359 µM) | 23 mm | 23 mm | zone of inhibition at 500 µg/mL (Escherichia coli [21]): 24 mm; zone of inhibition at 500 µg/mL (Pseudomonas aeruginosa [22]): 20 mm; MIC (Staphylococcus aureus [23]): 4.44 µg/mL (≈ 9.03 µM); MIC (Staphylococcus aureus [24]): 3.9 µg/mL (≈ 7.93 µM); MIC (Escherichia coli [25]): 3.9 µg/mL (≈ 7.93 µM); MIC (Pseudomonas aeruginosa [26]): 7.81 µg/mL (≈ 15.9 µM); MBC (Staphylococcus aureus [27]): 6.66 µg/mL (≈ 13.5 µM); MBC (Staphylococcus aureus [28]): 5.07 µg/mL (≈ 10.3 µM); MBC (Escherichia coli [29]): 7.8 µg/mL (≈ 15.9 µM); MBC (Pseudomonas aeruginosa [30]): 12.5 µg/mL (≈ 25.4 µM); Activity (Neutrophil): 136.7%; IC50 (DNA gyrase): 25.1 µM
2 | CC(=O)C1=C(C)OC(N)=C(C#N)C12C(=O)Nc1ccc(S(=O)(=O)N3CCOCC3)cc12 (centres undefined) | 20 mm | 22 mm | 21 mm | 19 mm | 21 mm | 14 mm | 17.8 µg/mL (≈ 40 µM) | 71.1 µg/mL (≈ 160 µM) | 15.6 µg/mL (≈ 35.1 µM) | 31.2 µg/mL (≈ 70.3 µM) | 7.81 µg/mL (≈ 17.6 µM) | 125 µg/mL (≈ 281 µM) | 26.6 µg/mL (≈ 60 µM) | 85.3 µg/mL (≈ 192 µM) | 23.4 µg/mL (≈ 52.7 µM) | 50 µg/mL (≈ 112 µM) | 15.6 µg/mL (≈ 35.1 µM) | 150 µg/mL (≈ 337 µM) | 21 mm | 20 mm | zone of inhibition at 500 µg/mL (Escherichia coli [21]): 22 mm; zone of inhibition at 500 µg/mL (Pseudomonas aeruginosa [22]): 18 mm; MIC (Staphylococcus aureus [23]): 7.81 µg/mL (≈ 17.6 µM); MIC (Staphylococcus aureus [24]): 7.81 µg/mL (≈ 17.6 µM); MIC (Escherichia coli [25]): 6.25 µg/mL (≈ 14.1 µM); MIC (Pseudomonas aeruginosa [26]): 8.88 µg/mL (≈ 20 µM); MBC (Staphylococcus aureus [27]): 12.5 µg/mL (≈ 28.1 µM); MBC (Staphylococcus aureus [28]): 9.37 µg/mL (≈ 21.1 µM); MBC (Escherichia coli [29]): 12.5 µg/mL (≈ 28.1 µM); MBC (Pseudomonas aeruginosa [30]): 17.8 µg/mL (≈ 40 µM); Activity (Neutrophil): 112.9%; IC50 (DNA gyrase): 25.1 µM
